Laboratory results: US9434687B2, “Detection of synthetic cannabinoids” (priority 2011, dated 2016)
Counter-ions that a name gives are not always drawn. Like-named read-outs stand apart in the source and are kept apart here.

Experiments:
Format in all cases: binding, sheep
[1] = system: IgG fraction of antiserum raised to Immunogen I
Procedure: (§1) An aqueous solution of each immunogen was formulated with Freund's Complete Adjuvant (FCA) to form an emulsion consisting of 2 mg/ml*immunogen in 50% (v/v) FCA. Three sheep were immunised with this emulsion (1° immunisation), 0.25 ml being intramuscularly injected at each of four sites in the flank of each animal. Subsequent immunizations (boosts) contained 1 mg/ml*immunogen. All boosts were emulsified in 50% (v/v) Freund's Incomplete Adjuvant (FIA) and were administered in the same manner as the 1° immunisation, at monthly intervals. Blood sampling took place 7 to 14 days after each boost. *The general procedure for immunogen administration is outlined above, however, it was necessary to deviate from this protocol in some cases, due to reduced immunogen concentrations (Immunogens II, IV, VII and VIII) and/or amount available (Immunogen VIII). Any deviations from the protocol described are outlined in Table 5 below and highlighted in bold.
(§2) The wells of an enhanced binding 96 well polystyrene microtiter plate were coated with IgG fraction of antiserum raised to Immunogen I or II, diluted in 10 mM Tris, pH8.5 (125 μl/well). The appropriate antibody coating dilution was determined using standard ELISA checkerboard techniques. The plate was incubated overnight at 4° C., washed 4 times over 10 minutes with Tris buffered saline containing Tween 20 (TBST) and tapped dry. Standard solutions (JWH-018 for Immunogens I and II) were applied at 0, 0.625, 1.25, 2.5, 5, 10, 20 and 40 ng/ml and 50 μl of each was added to the appropriate wells. 75 μl of conjugate (appropriate hapten-HRP) diluted in Tris buffer (pH 7.2) containing EDTA, D-mannitol, sucrose, thimerosal and BSA, was added to each of the wells. The appropriate dilution of conjugate was also determined using standard ELISA checkerboard techniques. The plate was incubated at 25° C. for 1 hour. Excess unbound conjugate was removed by washing 6 times over a 10 minute period with TBST. 125 μl of tetramethylbenzidine (TMB) substrate solution was added to each well of the plate that was then incubated for 20 minutes in the dark at room temperature. The reaction was terminated by addition of 125 μl 0.2M H2SO4 to each well. The absorbance was then measured at 450 nm using a microtiter plate reader. The data are inputted to a computer program called ‘KC Junior’. It is a 4 parameter fit curve and allow the calculation of concentrations between the standard runs. This program is used to calculate the IC50s by dividing the 0 ng/ml OD value by 2 and obtaining the concentration value from the curve for this OD.
In a similar manner to that described above, the wells of a 96-well microtiter plate were coated with the IgG fraction of the antiserum raised to Immunogens I or II. Standard solutions (JWH-018 for Immunogen I and II) were applied at 0, 0.625, 1.25, 2.5, 5, 10, 20 and 40 ng/ml and conjugate was employed as detection reagent.
(§3) The data set out in Tables 7-10 are generated using antibodies raised against the indicated Immunogens in a competitive binding assay with the indicated tracers, using the indicated standards
(§4) In order to determine the specificity of the competitive ELISAs, standard solutions of a range of structurally similar synthetic cannabinoids and their metabolites were prepared in TBST.
(§5) Using the calibration curves generated and employing a single level of cross reactants, these were used to determine the cross-reactivity of each immunoassay with these substances. These are the standards used for the IC50 and cross-reactivity data generation: […]

[2] = system: IgG fraction of antiserum raised to Immunogen IV
Procedure: as §1, §2
(§6) In a similar manner to that described above, the wells of a 96-well microtiter plate were coated with the IgG fraction of the antiserum raised to Immunogens IV, VII or VIII. Standard solutions (JWH-018 for Immunogens IV and VIII, JWH-015 for Immunogen VII) were prepared in TBST at 0, 1.25, 2.5, 5, 10, 20, 40 and 80 ng/ml and conjugate was employed as detection reagent.
as §3, §4, §5

[3] = system: IgG fraction of antiserum raised to Immunogen VIII
Procedure: as §1, §2, §6, §3, §4, §5

[4] = system: IgG fraction of antiserum raised to Immunogen VII
Procedure: as §1, §2, §6, §3, §4, §5

[5] = system: IgG fraction of antiserum raised to Immunogen II; assay: Competitive ELISA, antibody RS1833B12 to Immunogen II, tracer ESC4555 (Example 36); conditions: Antibody to Immunogen II; cross-reactants at 100 ng/ml; 1000 ng/ml; standard JWH-018
Procedure: as §1
as §2, with “The” for “The wells of an enhanced binding 96 well polystyrene microtiter plate were coated with IgG fraction of antiserum raised to Immunogen I or II, diluted in 10 mM Tris, pH8.5 (125 μl/well). The”, “Standard solutions (JWH-018 for Immunogens I and II) were applied at 0, 0.625, 1.25, 2.5, 5, 10, 20 and 40 ng/ml and 50 μl of each was added to the appropriate wells.” left out, “runs.” for “runs. This program is used to calculate the IC50s by dividing the 0 ng/ml OD value by 2 and obtaining the concentration value from the curve for this OD.”
In a similar manner to that described above, the wells of a 96-well microtiter plate were coated with the IgG fraction of the antiserum raised to Immunogens I or II.
as §3, §5

[6] = Antibody to Immunogen I, cross-reactants at 100 ng/ml, 1000 ng/ml, standard JWH-018
[7] = Antibody to Immunogen IV, cross-reactants at 100 ng/ml, 1000 ng/ml, standard JWH-018
[8] = Antibody to Immunogen VIII, cross-reactants at 100 ng/ml, 1000 ng/ml, standard JWH-018
[9] = Antibody to Immunogen VII, cross-reactants at 100 ng/ml, 1000 ng/ml, standard JWH-015

CC(O)CCCn1cc(C(=O)c2cccc3ccccc23)c2ccccc21 (racemic) [(±)-JWH 018 N-(4-hydroxypentyl) metabolite]
% B/B0 [1, 6]: 4.23%
% B/B0 [2, 7]: 52.29%
% B/B0 [3, 8]: 21.94%
% B/B0 [4, 9]: 57.37%
% B/B0 [5]: 53.99%

CC(F)CCCn1cc(C(=O)c2cccc3ccccc23)c2ccccc21 (single isomer, unassigned) [AM-2201 N-(4-fluoropentyl) isomer]
% B/B0 [1, 6]: 3.45%
% B/B0 [2, 7]: 5.72%
% B/B0 [3, 8]: 15.00%
% B/B0 [4, 9]: 52.70%
% B/B0 [5]: 14.60%

CC(C)C(C)n1cc(C(=O)c2cccc3ccccc23)c2ccccc21 (single isomer, unassigned) [JWH 018 N-(1,2-dimethylpropyl) isomer]
% B/B0 [1, 6]: 6.60%
% B/B0 [2, 7]: 87.11%
% B/B0 [3, 8]: 67.71%
% B/B0 [4, 9]: 62.29%
% B/B0 [5]: 71.33%

CCCCCn1cc(C(=O)Cc2ccccc2Cl)c2ccccc21 [JWH-203]
% B/B0 [1, 6]: 72.55%
% B/B0 [2, 7]: 52.15%
% B/B0 [3, 8]: 9.19%
% B/B0 [4, 9]: 99.08%

CCCCCn1cc(C(=O)Cc2ccc(Cl)cc2)c2ccccc21 [JWH-206, JWH-203 4-chloro isomer]
% B/B0 [1, 6]: 75.96%
% B/B0 [2, 7]: 65.63%
% B/B0 [3, 8]: 10.55%
% B/B0 [4, 9]: 97.17%

CCCCCn1cc(C(=O)c2c(CC)ccc3ccccc23)c2ccccc21 [JWH-210 2-ethylnaphthyl isomer]
% B/B0 [1, 6]: 81.37%
% B/B0 [2, 7]: 53.97%
% B/B0 [3, 8]: 73.51%
% B/B0 [4, 9]: 96.13%

CCCCCn1cc(C(=O)c2ccc(CC)c3ccccc23)c2cc(O)ccc21 [JWH-210 5-hydroxyindole metabolite]
% B/B0 [1, 6]: 83.29%
% B/B0 [2, 7]: 48.91%
% B/B0 [3, 8]: 87.72%
% B/B0 [4, 9]: 100.43%

CCCCCn1cc(C(=O)c2cccc3ccc(CC)cc23)c2ccccc21 [JWH-210 7-ethylnaphthyl isomer]
% B/B0 [1, 6]: 73.11%
% B/B0 [2, 7]: 27.07%
% B/B0 [3, 8]: 50.90%
% B/B0 [4, 9]: 100.55%

CCc1ccc(C(=O)c2cn(CCCCCC(=O)O)c3ccccc23)c2ccccc12 [JWH-210 N-(5-carboxypentyl) metabolite]
% B/B0 [1, 6]: 76.77%
% B/B0 [2, 7]: 85.29%
% B/B0 [3, 8]: 96.27%
% B/B0 [4, 9]: 96.07%

CCCCCn1cc(C(=O)c2ccc(CC)c3ccccc23)c2ccccc21 [JWH-210]
% B/B0 [1, 6]: 91.18%
% B/B0 [2, 7]: 5.53%
% B/B0 [3, 8]: 16.87%
% B/B0 [4, 9]: 96.62%

CCCCCn1cc(C(=O)Cc2ccccc2OC)c2ccccc21 [JWH-250]
% B/B0 [1, 6]: 78.94%
% B/B0 [2, 7]: 41.08%
% B/B0 [3, 8]: 9.40%
% B/B0 [4, 9]: 97.23%

CCCCCn1cc(C(=O)Cc2ccccc2C)c2ccccc21 [JWH-251]
% B/B0 [1, 6]: 68.01%
% B/B0 [2, 7]: 42.02%
% B/B0 [3, 8]: 9.12%
% B/B0 [4, 9]: 96.74%

CCCCCn1cc(C(=O)Cc2cccc(OC)c2)c2ccccc21 [JWH-302]
% B/B0 [1, 6]: 84.66%
% B/B0 [2, 7]: 45.67%
% B/B0 [3, 8]: 7.97%
% B/B0 [4, 9]: 104.92%

CCCCCn1cc(C(=O)c2cccc(OC)c2)c2ccccc21 [RCS-4 3-methoxy isomer]
% B/B0 [1, 6]: 31.19%
% B/B0 [2, 7]: 25.65%
% B/B0 [3, 8]: 10.95%
% B/B0 [4, 9]: 94.72%

COc1ccc(C(=O)c2cn(CCCC(C)O)c3ccccc23)cc1 (stereo not shown) [RCS-4 N-(4-hydroxypentyl) metabolite]
% B/B0 [1, 6]: 65.71%
% B/B0 [2, 7]: 59.16%
% B/B0 [3, 8]: 8.89%
% B/B0 [4, 9]: 95.72%

COc1ccc(C(=O)c2cn(CCCCCC(=O)O)c3ccccc23)cc1 [RCS-4 N-(5-carboxypentyl) metabolite]
% B/B0 [1, 6]: 77.12%
% B/B0 [2, 7]: 91.44%
% B/B0 [3, 8]: 91.97%
% B/B0 [4, 9]: 94.00%

COc1ccc(C(=O)c2cn(CCCCCO)c3ccccc23)cc1 [RCS-4 N-(5-hydroxypentyl) metabolite]
% B/B0 [1, 6]: 59.51%
% B/B0 [2, 7]: 61.03%
% B/B0 [3, 8]: 19.13%
% B/B0 [4, 9]: 94.55%

CCCCn1cc(C(=O)c2ccc(OC)cc2)c2ccccc21 [RCS-4-C4 homologue]
% B/B0 [1, 6]: 76.27%
% B/B0 [2, 7]: 27.17%
% B/B0 [3, 8]: 9.54%
% B/B0 [4, 9]: 100.20%

CCCCCn1cc(C(=O)c2ccc(OC)cc2)c2ccccc21 [RCS-4]
% B/B0 [1, 6]: 80.46%
% B/B0 [2, 7]: 19.21%
% B/B0 [3, 8]: 5.93%
% B/B0 [4, 9]: 93.51%

COc1cccc(CC(=O)c2cn(CCC3CCCCC3)c3ccccc23)c1 [RCS-8 3-methoxy isomer]
% B/B0 [1, 6]: 93.24%
% B/B0 [2, 7]: 89.43%
% B/B0 [3, 8]: 83.62%
% B/B0 [4, 9]: 93.73%

COc1ccc(CC(=O)c2cn(CCC3CCCCC3)c3ccccc23)cc1 [RCS-8 4-methoxy isomer]
% B/B0 [1, 6]: 94.94%
% B/B0 [2, 7]: 90.78%
% B/B0 [3, 8]: 100.72%
% B/B0 [4, 9]: 98.21%

COc1ccccc1CC(=O)c1cn(CCC2CCCCC2)c2ccccc12 [RCS-8]
% B/B0 [1, 6]: 82.65%
% B/B0 [2, 7]: 85.50%
% B/B0 [3, 8]: 88.79%
% B/B0 [4, 9]: 94.57%

NCCc1c[nH]c2ccc(O)cc12 [Serotonin HCl]
% B/B0 [1, 6]: 99.65%
% B/B0 [2, 7]: 95.40%
% B/B0 [3, 8]: 100.36%
% B/B0 [4, 9]: 99.83%

COc1ccc(C(=O)c2c(C)n(CCN3CCOCC3)c3ccccc23)cc1 [WIN-48,098, Pravadoline]
% B/B0 [1, 6]: 90.05%
% B/B0 [2, 7]: 91.64%
% B/B0 [3, 8]: 97.90%
% B/B0 [4, 9]: 92.41%

CS(=O)(=O)O.Cc1c(C(=O)c2cccc3ccccc23)c2cccc3c2n1[C@@H](CN1CCOCC1)CO3 [Win 55,212-3 mesylate]
% B/B0 [1, 6]: 34.00%
% B/B0 [2, 7]: 94.57%
% B/B0 [3, 8]: 101.30%
% B/B0 [4, 9]: 32.31%

(+)-CP 55,940
% B/B0 [1, 6]: 103.25%
% B/B0 [2, 7]: 91.38%
% B/B0 [3, 8]: 95.12%
% B/B0 [4, 9]: 97.15%

(−)-11-nor-9-Carboxy-delta9-THC
% B/B0 [1]: 100.47%
% B/B0 [2]: 93.08%
% B/B0 [3]: 103.36%
% B/B0 [4]: 98.72%

(−)-CP 55,940
% B/B0 [1, 6]: 98.27%
% B/B0 [2, 7]: 93.02%
% B/B0 [3, 8]: 97.58%
% B/B0 [4, 9]: 101.15%
